In PMC8486872, “A rational blueprint for the design of chemically-controlled protein switches” (Nature Communications, 2021):
Values joined by “and” are separate entries in the source; they are usually repeats but may differ in a detail not shown here. Identical values can stand only once.

Assays:
Format in all cases: cell-based
[1] = test system: Gal4/UAS SEAP expression in HEK293T cells; experiment: Drug specificity of CDH-TFs; details: Suppl Fig 7b
Experimental: Supplementary Figure 7: Dose-dependence and reversibility characterization of CDHs in CDH-
a) Background signal of SEAP reporter in the absence of the CDH-TF system. HEK239T cells were
(§1) transfected with SEAP reporter S132 and treated with 1 µM Drugs 12 hours post transfection.
(§2) Quantification of SEAP was performed 24 hours after drug treatment. b) Drug specificity of CDH-TFs. […]

[2] = test system: SEAP expression in HEK293T cells; experiment: Background signal of SEAP reporter and single-construct controls
Experimental: Supplementary Figure 7: Dose-dependence and reversibility characterization of CDHs in CDH- […]
as §1, §2
Background signal of SEAP reporter in the absence of the CDH-GEMS system. HEK293T cells were transfected with pLS566 SEAP reporter plasmids and treated with drugs. Quantification of SEAP was performed 24 hours post drug treatment. f) SEAP activity upon transfecting single or paired […]
Quantification of SEAP activity of three CDHs with DMSO (dark color), specific (light color) and unspecific drug treatment (gray). […]
(culture medium) in panels of b, c, f and g were collected every 12 hours. Values were normalized to zero based on the SEAP expression at time 0. a, b, e, f, g) The bar charts show the mean ± s.d. of n = 3 biologically independent samples overlaid with a scatter dot plot of the original data points.

[3] = test system: SEAP and Luciferase expression in HEK293T cells; experiment: MIMO designer cells (AIR-1/2-GEMS + CDH-3-TF); details: for Luciferase: Fig5c, turn OFF via CDH-3-TF; for AIR-1-GEMS controlled SEAP expression: Fig S13c; for AIR-2-GEMS controlled SEAP expression: Fig S13e
Description: We first engineered MIMO cells to respond to two drugs with distinct outputs (Fig. 5a) by co-transfecting the CDH-3-TF with either AIR-1-GEMS (Fig. 5b) or AIR-2-GEMS (Fig. 5c).
Fig. 5 Orthogonal chemical switches enable implementation of multi-input multi-output control modes in mammalian cells. a Scheme of multi-inputs multi-outputs (MIMO) designer cells where two drugs control two different outputs. b, c Cells were co-transfected with AIR-1/2-GEMS and CDH-3-TF regulate SEAP and Luciferase expression, respectively. […] AIR-1/2-GEMS coupled with SEAP expression circuits were co-transfected with CDH-1/2-TF circuits which control the Luciferase production. Respective drug concentrations ranged from 0.001 nM to 1 µM. All values presented are mean ± s.d. of three replicates and curves were fitted by four-parameters nonlinear regression. b, c, e, f, h, i Source data are available in the source data file.
Supplementary Figure 13: Orthogonal chemical switches enable implementation of multi-input multi-output control modes in mammalian cells. a) Dual drug toxicity tests in 293T cells. […]
concentrations of 1 nM, 10 nM, 100 nM and 1000 nM each drug in cell culture medium. CCK8 assay was performed 24 hours after drug treatment. Each bar represents the mean of three biological replicates ± s.d, overlaid with a scatter dot plot of the original data points. b-c) Cells were co-transfected with AIR-1-GEMS and CDH-3-TF regulate SEAP and Luciferase expression, respectively. Drug concentrations ranged from 0.001 nM to 1 µM and different combinations were added depending on the protein components, Drug-1 only (b) and Drug-3 only (c). d-e) Cells were co-transfected with AIR-2-GEMS and CDH-3-TF regulate SEAP and Luciferase expression, respectively. Drug concentrations ranged from 0.001 nM to 1 µM and different combinations were added depending on the protein […]
1-TF and CDH-3-TF circuits. Drug-1 concentrations ranged from 0.001 nM to 1 µM (left) and 1 µM Drug-1 with serial diluted Drug-3 from 0.001 nM to 1 µM (right). g) Quantification of SEAP activity controlled by CDH-1-GEMS and CDH-3-GEMS circuits. Drug-1 concentrations ranged from 0.001 nM to 1 µM (left) and Drug-3 dilution along with 1 µM Drug-1 (right). h-i) Quantification of SEAP and Luciferase activities under Drug-1. AIR-1-GEMS coupled with SEAP expression circuits (i) and CDH-1-TF circuits which control the Luciferase production (j). j-k) Quantification of SEAP and Luciferase activities under Drug-2. AIR-2-GEMS coupled with SEAP expression circuits (k) and CDH-2-TF circuits which control the Luciferase production (l). b-k) Each data point represents the mean of n = 3 biological replicates, and the dose-dependent curve were fitted using four-parameter nonlinear regression.

[4] = Fig5c Luciferase via CDH-3-TF, four-parameter fit

## COc1cc2c(cc1OC(C)C)[C@H](c1ccc(Cl)cc1)N(c1ccc(N(C)C[C@H]3CC[C@H](N4CCN(C)C(=O)C4)CC3)cc1)C(=O)C2 [Drug-3, NVP-CGM097]
[1]; CDH1
  Reporter signal, drug specificity: 58.9096 and 56.9625 and 57.522
[1]; CDH2
  Reporter signal, drug specificity: 99.5028 and 95.5176 and 91.4654
[1]; CDH3
  Reporter signal, drug specificity: 52.7796 and 52.4144 and 49.1641
[2]; Suppl Fig 7a, TF reporter (S132) only
  Reporter background signal: 2.305 and 2.301 and 2.45
[2]; Suppl Fig 7e, GEMS reporter (pLS566) only
  Reporter background signal: 5.089 and 3.395 and 2.755
[3]; [4]
  Bottom (best-fit value): 2526
  HillSlope (best-fit value): -0.2874
  Span (best-fit value): 8582
  Top (best-fit value): 11108
[3]; Fig5c Luciferase via CDH-3-TF, four-parameter fit, drug in nM
  logIC50 (best-fit value): 0.378
[3]; 0.001 nM
  Luciferase: 11408 and 10803 and 9477
[3]; 0.01 nM
  Luciferase: 8964 and 10094 and 8469
[3]; 0.05 nM
  Luciferase: 9839 and 9595 and 9040
[3]; 0.1 nM
  Luciferase: 9399 and 10012 and 6733
[3]; 0.5 nM
  Luciferase: 8698 and 9248 and 7194
[3]; 1 nM
  Luciferase: 7508 and 6014 and 5224
[3]; 5 nM
  Luciferase: 7040 and 7013 and 4899
[3]; 50 nM
  Luciferase: 6881 and 6483 and 4547
[3]; 100 nM
  Luciferase: 6853 and 5994 and 4849
[3]; 500 nM
  Luciferase: 3847 and 3669 and 3338
[3]; 1000 nM
  Luciferase: 2560 and 2436 and 2236
[3]; Fig S13c (with AIR-1-GEMS), Drug-3 0.01 nM
  CDH-3-TF controlled Luciferase expression: 74322 RLU and 90639 RLU and 90152 RLU
[3]; Fig S13c (with AIR-1-GEMS), Drug-3 0.1 nM
  CDH-3-TF controlled Luciferase expression: 79497 RLU and 97593 RLU and 89748 RLU
[3]; Fig S13c (with AIR-1-GEMS), Drug-3 1 nM
  CDH-3-TF controlled Luciferase expression: 92895 RLU and 90324 RLU and 97096 RLU
[3]; Fig S13c (with AIR-1-GEMS), Drug-3 3.14 nM
  CDH-3-TF controlled Luciferase expression: 89025 RLU and 81214 RLU and 83886 RLU
[3]; Fig S13c (with AIR-1-GEMS), Drug-3 10 nM
  CDH-3-TF controlled Luciferase expression: 71915 RLU and 80976 RLU and 86610 RLU
[3]; Fig S13c (with AIR-1-GEMS), Drug-3 31.4 nM
  CDH-3-TF controlled Luciferase expression: 73972 RLU and 79521 RLU and 71327 RLU
[3]; Fig S13c (with AIR-1-GEMS), Drug-3 100 nM
  CDH-3-TF controlled Luciferase expression: 58208 RLU and 70422 RLU and 71065 RLU
[3]; Fig S13c (with AIR-1-GEMS), Drug-3 314 nM
  CDH-3-TF controlled Luciferase expression: 42892 RLU and 48456 RLU and 50289 RLU
[3]; Fig S13c (with AIR-1-GEMS), Drug-3 1000 nM
  CDH-3-TF controlled Luciferase expression: 30804 RLU and 29063 RLU and 25322 RLU
[3]; Drug-3 0.01 nM
  AIR-1-GEMS controlled SEAP expression: 2.627 U/L and 3.059 U/L and 3.456 U/L
  AIR-2-GEMS controlled SEAP expression: 23.8276 U/L and 27.0293 U/L and 24.7478 U/L
[3]; Drug-3 0.1 nM
  AIR-1-GEMS controlled SEAP expression: 2.503 U/L and 2.294 U/L and 2.87 U/L
  AIR-2-GEMS controlled SEAP expression: 31.2293 U/L and 29.7436 U/L and 28.9473 U/L
[3]; Drug-3 1 nM
  AIR-1-GEMS controlled SEAP expression: 2.418 U/L and 1.987 U/L and 3.339 U/L
  AIR-2-GEMS controlled SEAP expression: 33.4988 U/L and 33.4382 U/L and 38.599 U/L
[3]; Drug-3 3.14 nM
  AIR-1-GEMS controlled SEAP expression: 2.659 U/L and 2.285 U/L and 3.202 U/L
  AIR-2-GEMS controlled SEAP expression: 29.7735 U/L and 33.7772 U/L and 32.4262 U/L
[3]; Drug-3 10 nM
  AIR-1-GEMS controlled SEAP expression: 2.675 U/L and 2.964 U/L and 4.021 U/L
  AIR-2-GEMS controlled SEAP expression: 34.6343 U/L and 33.3124 U/L and 32.8022 U/L
[3]; Drug-3 31.4 nM
  AIR-1-GEMS controlled SEAP expression: 3.041 U/L and 3.191 U/L and 3.396 U/L
  AIR-2-GEMS controlled SEAP expression: 36.5713 U/L and 29.6375 U/L and 31.1491 U/L
[3]; Drug-3 100 nM
  AIR-1-GEMS controlled SEAP expression: 2.602 U/L and 2.779 U/L and 2.696 U/L
  AIR-2-GEMS controlled SEAP expression: 34.5656 U/L and 34.2561 U/L and 36.2322 U/L
[3]; Drug-3 314 nM
  AIR-1-GEMS controlled SEAP expression: 2.611 U/L and 3.076 U/L and 2.832 U/L
  AIR-2-GEMS controlled SEAP expression: 30.9331 U/L and 30.4872 U/L and 34.4499 U/L
[3]; Drug-3 1000 nM
  AIR-1-GEMS controlled SEAP expression: 3.25 U/L and 2.611 U/L and 2.639 U/L
  AIR-2-GEMS controlled SEAP expression: 13.1028 U/L and 12.5357 U/L and 11.75 U/L
[3]; Fig S13e (with AIR-2-GEMS), Drug-3 0.01 nM
  CDH-3-TF controlled Luciferase expression: 41565 RLU and 51927 RLU and 50033 RLU
[3]; Fig S13e (with AIR-2-GEMS), Drug-3 0.1 nM
  CDH-3-TF controlled Luciferase expression: 58083 RLU and 52382 RLU and 52587 RLU
[3]; Fig S13e (with AIR-2-GEMS), Drug-3 1 nM
  CDH-3-TF controlled Luciferase expression: 58208 RLU and 58951 RLU and 60752 RLU
[3]; Fig S13e (with AIR-2-GEMS), Drug-3 3.14 nM
  CDH-3-TF controlled Luciferase expression: 50716 RLU and 61071 RLU and 59090 RLU
[3]; Fig S13e (with AIR-2-GEMS), Drug-3 10 nM
  CDH-3-TF controlled Luciferase expression: 56023 RLU and 57202 RLU and 60529 RLU
[3]; Fig S13e (with AIR-2-GEMS), Drug-3 31.4 nM
  CDH-3-TF controlled Luciferase expression: 53333 RLU and 47578 RLU and 50640 RLU
[3]; Fig S13e (with AIR-2-GEMS), Drug-3 100 nM
  CDH-3-TF controlled Luciferase expression: 44259 RLU and 48370 RLU and 51647 RLU
[3]; Fig S13e (with AIR-2-GEMS), Drug-3 314 nM
  CDH-3-TF controlled Luciferase expression: 32705 RLU and 39602 RLU and 35080 RLU
[3]; Fig S13e (with AIR-2-GEMS), Drug-3 1000 nM
  CDH-3-TF controlled Luciferase expression: 15038 RLU and 22579 RLU and 17745 RLU
[3]; Homo sapiens, HEK-293T, Fig5c Luciferase turn OFF via CDH-3-TF, four-parameter fit, read-out: IC50 (best-fit value)
  IC50: 2.39 nM
